Data set [1] addresses T1, Corticotropin-releasing factor receptor 1 (Homo sapiens, UniProt P34998).
T1 sequence (P34998 whole entry): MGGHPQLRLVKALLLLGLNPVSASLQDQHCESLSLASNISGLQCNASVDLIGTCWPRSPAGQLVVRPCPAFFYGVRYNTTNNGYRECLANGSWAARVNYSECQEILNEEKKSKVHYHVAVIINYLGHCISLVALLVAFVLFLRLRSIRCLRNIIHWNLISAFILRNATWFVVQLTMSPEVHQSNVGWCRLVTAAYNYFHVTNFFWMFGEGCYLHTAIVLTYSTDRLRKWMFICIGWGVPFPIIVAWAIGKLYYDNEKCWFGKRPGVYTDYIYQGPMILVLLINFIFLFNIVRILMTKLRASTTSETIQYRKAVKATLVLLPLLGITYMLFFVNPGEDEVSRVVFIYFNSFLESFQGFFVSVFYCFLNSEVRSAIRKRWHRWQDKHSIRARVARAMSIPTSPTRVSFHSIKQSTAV
The data set can be described thus: Antagonist activity at recombinant human CRF1 receptor expressed in CHO cells assessed as inhibition of CRF-induced cAMP formation. In kind it is functional, cell-based. A general note: Changes in cAMP serve as a functional read-out for many G protein-coupled receptors.

The target in data set [2] is T1, Corticotropin-releasing factor receptor 1. The data set can be described thus: Binding affinity to recombinant human CRF1 receptor expressed in CHO cells. In kind it is cell-based.
In data set [3] the test system is Liver microsomes. The data set can be described thus: Intrinsic clearance in rat liver microsomes assessed per mg of protein. In kind it is ADME, Microsome.
The nature of data set [4]: Volume of distribution at steady state in rat at 0.1 mg/kg. As to conditions: in vivo, read-out: Vdss. Also noted: dose 0.1 mg/kg. In kind it is ADME, organism-based.
Data set [5] has as its target T2, Corticotropin-releasing factor receptor 1 (Homo sapiens) (UniProt P34998).
T2 sequence (whole entry): T1 sequence (P34998 whole entry)
As to conditions: CHO.
Description: Antagonist activity at recombinant human CRF1 receptor expressed in CHO cells assessed as dissociation half life

A short description of data set [6]: Half life in rat at 0.1 mg/kg. In kind it is ADME, organism-based. Also noted: dose 0.1 mg/kg. Particulars: in vivo.
Data set [7] deals with Liver microsomes. The data set can be described thus: Intrinsic clearance in human liver microsomes assessed per mg of protein. It is filed as ADME, Microsome. In general terms: Liver microsomes are vesicles of endoplasmic reticulum, rich in cytochrome P450 enzymes.
A short description of data set [8]: Clearance in rat at 0.1 mg/kg. Also noted: dose 0.1 mg/kg. In kind it is ADME, organism-based. As to conditions: in vivo.
The nature of data set [9]: Oral bioavailability in rat at 8 mg/kg. It is filed as ADME, organism-based. Particulars: in vivo.

The Ki is the equilibrium dissociation constant of an inhibitor or competing ligand from its target. As to `COc1ccc(-n2c(CC3CC3)nc3c(NC(C4CC4)C4CC4)nc(C)nc32)cc1`, the Ki in data set [1] was determined as 308 nM.

Usually Kd stands for the concentration at which binding is half-saturated. For orientation: half-life means the time needed for the level to fall by half in the phase considered. A higher half-life goes with slow decline. Regarding `Cc1nc(NC(C2CC2)C2CC2)c2nc(C)n(-c3ccc(OC(F)F)cc3)c2n1`, the Kd in [2] was 3 nM. For the same molecule, the clearance in data set [3] worked out at 17 µL/min/mg; in data set [7], 15 µL/min/mg; in data set [8], 3 mL/min/kg. The Vd in [4] turned out to be 2 L/kg. The molecule also displayed a T1/2 in [5] of 1 h. In data set [6], this molecule had a half-life of 11 h. For the same molecule, the Ki in data set [1] was 5 nM.

Molecule `CCCN(CCC)c1cc(C)nc2c(-c3cnc(N(C)C)cc3C)c(C)nn12` came in with a T1/2 in data set [5] of 12.8 h.

Consider `Cc1nc(NC(C2CC2)C2CC2)c2nc(C)n(-c3ccc(OC(F)(F)F)cc3)c2n1`, for which the clearance in data set [3] came to 27 µL/min/mg; in data set [7], 17 µL/min/mg. Further, the Ki in data set [1] worked out at 9 nM.

As for `Cc1nc(NC(C2CC2)C2CC2)c2nc(C)n(-c3ccc(Cl)cc3)c2n1`, the clearance in [3] was less than 8.5 µL/min/mg; in data set [7], 28 µL/min/mg. For the same molecule, in [1], the Ki came out at 11 nM.

As for `Cc1nc(NC(C2CC2)C2CC2)c2nc(C)n(-c3ccc(C#N)cc3)c2n1`, the clearance turned out to be 22 µL/min/mg in [3] and 16 µL/min/mg in data set [7]. Besides, in data set [1], the Ki is 62 nM.

For `COc1ccc(-n2c(C)nc3c(NC(C4CC4)C4CC4)nc(C)nc32)c(Cl)c1`, in [1], the inhibitory constant (Ki) turned out to be 12 nM.

`Cc1nc(NC(C2CC2)C2CC2)c2nc(C)n(-c3ccc(S(C)(=O)=O)cc3)c2n1` gave a clearance in data set [7] of less than 9 µL/min/mg. Moreover, in data set [1], the Ki was 140 nM.

On to `COCc1nc2c(NC(C3CC3)C3CC3)nc(C)nc2n1-c1ccc(OC)cc1`, for which the Ki in data set [1] amounted to 157 nM.

Take `COc1ccc(-n2cnc3c(NC(C4CC4)C4CC4)nc(C)nc32)c(C)c1`: the clearance was determined as 48 µL/min/mg in [3] and 21 µL/min/mg in data set [7]. Moreover, the Ki in data set [1] worked out at 47 nM.

For the molecule `Cc1nc(NC(C2CC2)C2CC2)c2nc(C)n(-c3ccc(OC(F)F)cc3Cl)c2n1`, the Kd in data set [2] stood at 0.373 nM. The figures for the clearance in [3], in data set [7] and in data set [8] were 51 µL/min/mg, 18 µL/min/mg and 8 mL/min/kg, respectively. For the same molecule, the Vd in [4] was determined as 4.5 L/kg. Further, in data set [5], the T1/2 stood at 6.2 h. The half-life in data set [6] is 6.4 h. In addition, in data set [1], the inhibition constant (Ki) turned out to be 0.373 nM.

As for `COc1ccc(-n2c(CC(C)C)nc3c(NC(C4CC4)C4CC4)nc(C)nc32)cc1`, in data set [1], the Ki is 607 nM.

On to `CCC(CC)Nc1cc(C)nc2c(-c3ccc(OC)cc3C)c(C)nn12`, for which the Kd in data set [2] was 0.279 nM. This molecule also yielded a T1/2 in data set [5] of 5.5 h. Further, the Ki in data set [1] was determined as 1.5 nM.

A word on the bioavailability: it is dose-corrected exposure relative to a reference, in per cent. A higher bioavailability goes with much systemic uptake. In the case of `COc1cc(OC(F)F)ccc1-n1c(C)nc2c(NC(C3CC3)C3CC3)nc(C)nc21`, the dissociation constant Kd in data set [2] was determined as 0.291 nM. The molecule also registered a bioavailability in data set [9] of 52%. Also, the clearance worked out at 38 µL/min/mg in data set [3], 19 µL/min/mg in [7] and 9 mL/min/kg in [8]. In data set [4], the Vd worked out at 8.2 L/kg. Further, in data set [5], the T1/2 is 10.7 h. Further, the half-life in data set [6] is 10 h. Moreover, the Ki in data set [1] is 0.291 nM.

`COc1ccc(-n2c(C)nc3c(NC(C4CC4)C4CC4)nc(C)nc32)c(C)c1`: the clearance in data set [3] stood at 37 µL/min/mg; in data set [7] it was 10 µL/min/mg. The Ki in data set [1] came out at 14 nM.

For the molecule `CCCN(CCOC)c1nc(C)nc2c1c(C)nn2-c1ccc(OC)cc1C`, the Kd in data set [2] was found to be 14 nM. The clearance in data set [3] came to 23 µL/min/mg; in [7] it was 172 µL/min/mg. Moreover, in data set [5], the T1/2 is 0.3 h.

For `Cc1nc(NC(C2CC2)C2CC2)c2nc(C)n(-c3ccc(OC(F)F)cc3F)c2n1`, the Ki in data set [1] was 7 nM.

With `COc1ccc(-n2ncc3c(NC(C4CC4)C4CC4)nc(C)nc32)c(C)c1`, the results for the clearance in [3] and in data set [7] were 25 µL/min/mg and less than 11 µL/min/mg, respectively. Moreover, in data set [1], the Ki stood at 32 nM.

As to `COc1ccc(-n2c(C3CCCO3)nc3c(NC(C4CC4)C4CC4)nc(C)nc32)cc1` (racemic), in [1], the Ki was determined as 867 nM.

Regarding `Cc1nc(NC(C2CC2)C2CC2)c2nc(C)n(-c3ccc(F)cc3)c2n1`, the clearance is less than 8.5 µL/min/mg in [3] and 15 µL/min/mg in data set [7]. Also, the inhibition constant (Ki) in [1] came out at 91 nM.

As to `COc1ccc(-n2c(C)nc3c(NC(C4CC4)C4CC4)nc(C)nc32)cc1`, the Kd in data set [2] turned out to be 12 nM. For the same molecule, the clearance is 20 µL/min/mg in data set [3], less than 10 µL/min/mg in data set [7] and 4 mL/min/kg in data set [8]. In data set [4], the Vd came out at 2 L/kg. Further, the T1/2 in [5] amounted to 0.5 h. Moreover, the half-life in data set [6] was 2.7 h. Besides, the Ki in [1] turned out to be 19 nM.

In the case of `COc1ccc(-n2c(C3CC(F)(F)C3)nc3c(NC(C4CC4)C4CC4)nc(C)nc32)cc1`, the inhibitory constant (Ki) in [1] turned out to be 261 nM.

In the case of `CCOc1ccc(-n2c(C)nc3c(NC(C4CC4)C4CC4)nc(C)nc32)cc1`, the clearance in data set [3] stood at 29 µL/min/mg; in data set [7], 16 µL/min/mg. Moreover, the Ki in data set [1] came out at 20 nM.

Source of the values: ChEMBL document CHEMBL1833795, “Discovery of potent, metabolically stable purine CRF-1 antagonists with differentiated binding kinetic profiles” (Bioorg Med Chem Lett, 2011).
